Source: ChEMBL document CHEMBL3244093, “Synthesis and antiinflammatory activity of trisubstituted pyrimidines and triazines” (1978)

Tested on: Rattus norvegicus
Experiment: Antiinflammatory activity in po dosed rat assessed as inhibition of carrageenan-induced foot edema compound administered 1 hr before carrageenan challenge measured after 3 to 3.5 hrs relative to untreated control
Format: functional

Row | Structure (SMILES) | ED50 [mg/kg]
1 | Cc1cnc(N)nc1-c1ccncc1 | 66
2 | c1ccc(-c2cncnc2-c2ccncc2)cc1 | 95
3 | CCCCC1C(=O)N(c2ccccc2)N(c2ccccc2)C1=O [PHENYLBUTAZONE] | 25
4 | CC(C)(C)C1CCc2ncncc2C1 (stereo unspecified) | 58
5 | Nc1nccc(-c2ccncc2)n1 [listing 1 of 2 here] | 38
6 | COc1ccc(-c2cnc(N)nc2-c2ccc(OC)cc2)cc1 | 85
7 | CC(C)(C)c1ccnc(O)n1 | 43
8 | CNc1nccc(-c2ccncc2)n1 | 49
9 | CC(C)(C)c1c[n+]([O-])cnn1 | 98
10 | Cc1c(-c2ccccc2)nnc[n+]1[O-] | 64
11 | CN(C)CC(=O)Nc1ncc(-c2ccccc2)c(C(C)(C)C)n1 | 84
12 | Cc1nccc(-c2ccncc2)n1 | 47
13 | Cc1ccc2c(-c3ccccc3)nc(=O)n(C(C)C)c2c1 [PROQUAZONE] | 5.2

Tested on: Rattus norvegicus
Experiment: Antiinflammatory activity in rat assessed as inhibition of carrageenan-induced foot edema at 100 mg/kg, po administered 1 hr before carrageenan challenge measured after 3 to 3.5 hrs relative to untreated control
Format: functional

Row | Structure (SMILES) | inhibition in vivo at 100 mg/kg [%]
14 | CC(C)(C)c1ccnc(Cl)n1 | < 5
15 | CC(C)(C)Nc1nccc(C(C)(C)C)n1 | 26
16 | Nc1nccc(-c2ccncc2)n1 [listing 2 of 2 here] | 18
17 | CN(C)c1nccc(C(C)(C)C)n1 | 18
18 | CC(C)(C)c1ccnc(N)n1 | 32
19 | CCOC(=O)Nc1nccc(-c2ccncc2)n1 | 31
20 | c1ccc2c(c1)CCCc1ncnnc1-2 | < 5
21 | Cc1ncc(-c2ccccc2)c(C(C)(C)C)n1 | 22
22 | CC(C)(C)c1nc(NC(=O)CCCC(=O)O)ncc1-c1ccccc1 | 5
23 | CN1CCc2nc(N)ncc2C1 | < 5
24 | CN1CCc2ncncc2C1 | 50
25 | CC(C)(C)c1c[n+]([O-])c(-c2ccccc2)nn1 | 35
26 | CC(C)(C)c1nc(N)ncc1-c1ccccc1 | 46
27 | Cc1ncc2c(n1)CCCCCCCCCC2 | < 5
28 | c1ccc(-c2nccc(-c3ccncc3)n2)cc1 | 42
29 | Cc1nnc(C(C)(C)C)c[n+]1[O-] | 22
30 | Cc1nc(-c2ccccc2)nnc1-c1ccccc1 | < 5
31 | Cc1ncc2c(n1)CCC(C(C)(C)C)C2 (stereo unspecified) | < 5
32 | NC(=O)Nc1nccc(-c2ccncc2)n1 | 12
33 | c1cc(-c2ccncn2)ccn1 | 45
34 | CC(C)(C)C1CCc2nnc[n+]([O-])c2C1 (stereo unspecified) | 36
35 | Nc1ncc(-c2ccccc2)c(-c2ccncc2)n1 | 48
36 | CC(C)(C)c1nc(NC(N)=O)ncc1-c1ccccc1 | 14

Row | Structure (SMILES) | inhibition in vivo at 100 mg/kg [%]
37 | CNc1ncc(-c2ccccc2)c(C(C)(C)C)n1 | 37
38 | CC(C)(C)c1ccnc(NCCc2ccccc2)n1 | 10
39 | COc1ccc(-c2cnc(C)nc2-c2ccc(OC)cc2)cc1 | < 5
40 | CC(C)(C)c1cnc(-c2ccccc2)nn1 | 38
41 | CC(=O)Nc1nccc(-c2ccncc2)n1 | 52
42 | c1ccc(-c2nnc3c(ccc4ccccc43)n2)cc1 | < 5
43 | CSc1nccc(C(C)(C)C)n1 | 35
44 | c1ccc2c(c1)CCc1cncnc1-2 | 32
45 | Cc1ncc(C(C)(C)C)nn1 | 25
46 | CCCCc1nnc2c(ccc3ccccc32)n1 | < 5
47 | CC(=O)N(C(C)=O)c1ncc(-c2ccccc2)c(C(C)(C)C)n1 | 22
48 | c1ncc2c(n1)CCCCCCCCCC2 | < 5
49 | CC(C)(C)c1nc(-c2ccccc2)ncc1-c1ccccc1 | < 5
50 | Cc1nnc2c(ccc3ccccc32)n1 | < 5
51 | Cc1ncc2c(n1)-c1ccccc1CC2 | < 5
52 | Nc1ncc2c(n1)-c1ccccc1CC2 | 32
53 | Cc1cncnc1-c1ccccc1 | 48
54 | Cc1ncc(C)c(-c2ccccc2)n1 | 12
55 | Cc1ncc2c(n1)-c1ccccc1C2 | < 5
56 | Cc1nnc2c([n+]1[O-])CC(C(C)(C)C)CC2 (stereo unspecified) | 48
57 | CC(C)(C)c1ccnc(S)n1 | 22
58 | CC(C)(C)c1ccnc(Nc2ccccc2)n1 | 21
59 | Cc1ncc2c(n1)CCN(C)C2 | 45

Row | Structure (SMILES) | inhibition in vivo at 100 mg/kg [%]
60 | Cc1cncnc1-c1ccncc1 | 50
61 | CC(C)(C)c1ccnc(NCc2ccccc2)n1 | 14
62 | CC(C)(C)c1nc(N)ncc1-c1cccc(C(F)(F)F)c1 | 8
63 | Nc1ncc2c(n1)CCCCCCCCCC2 | < 5
64 | Nc1nccc(-c2ccccn2)n1 | 17
65 | CCOC(=O)Nc1ncc(-c2ccccc2)c(C(C)(C)C)n1 | 24
66 | CC(C)(C)c1nc(N)ncc1-c1ccc(Cl)cc1 | 25
67 | CC(C)(C)c1ncncc1-c1ccccc1 | 48
68 | CC(C)(C)C1CCc2nncnc2C1 (stereo unspecified) | 49
69 | Cc1nnc2c(n1)CC(C(C)(C)C)CC2 (stereo unspecified) | < 5
70 | CNc1nccc(C(C)(C)C)n1 | 34
71 | CC(C)(C)C1CCc2nc(N)ncc2C1 (stereo unspecified) | 41
72 | c1ccc2c(c1)ccc1ncnnc12 | < 5
73 | Nc1nccc(-c2cccnc2)n1 | 32
74 | CC(C)(C)c1nc(NN)ncc1-c1ccccc1 | < 5
75 | Cc1cnc(N)nc1-c1ccccc1 | 34
76 | CC(C)(C)c1nc(NC#N)ncc1-c1ccccc1 | < 5
77 | Cc1ncc2c(n1)-c1ccccc1CCC2 | < 5
78 | CC(=O)Nc1ncc(-c2ccccc2)c(C(C)(C)C)n1 | 29
79 | CC(C)(C)C1CCc2nnc(-c3ccccc3)[n+]([O-])c2C1 (stereo unspecified) | 15
80 | N#CNc1nccc(-c2ccncc2)n1 | < 5
81 | Cc1ncnnc1-c1ccccc1 | < 5
